Laboratory results published in ChEMBL document CHEMBL4184178, “Identification of potent lysophosphatidic acid receptor 5 (LPA5) antagonists as potential analgesic agents” (Bioorg Med Chem, 2018).
pIC50: −log10 of the molar value. Calls of active or inactive are those of the source. The rule behind the calls is not given here.

Experiments:
[1] = target: Lysophosphatidic acid receptor 5 (Rattus norvegicus, UniProt D4ADR1); assay: Antagonist activity at rat LPA5 receptor expressed in CHO cells assessed as inhibition of LPA-induced cAMP accumulation after 30 mins by Lance Ultra assay; type: cell-based
[2] = Plasma concentration in rat at 60 mg/kg, ip measured after 0.5 hrs by LC-MS analysis; type: ADME, organism-based
[3] = Drug uptake in rat brain at 60 mg/kg, ip measured after 0.5 hrs by LC-MS analysis; type: ADME, organism-based; settings: read-out: Drug uptake
[4] = Brain to plasma partition coefficient, Kp of the compound in rat at 60 mg/kg, ip measured after 0.5 hrs by LC-MS analysis; type: ADME, organism-based
[5] = test system: Rattus norvegicus; assay: Analgesic effect in rat chronic constriction injury model assessed as reduction in mechanical allodynia at 60 mg/kg, ip by Von Frey test; type: functional, organism-based
[6] = test system: Rattus norvegicus; assay: Analgesic effect in rat chronic constriction injury model assessed as reduction in mechanical allodynia at 10 mg/kg, ip by Von Frey test; type: functional, organism-based

Chain of Lysophosphatidic acid receptor 5 (D4ADR1 whole entry): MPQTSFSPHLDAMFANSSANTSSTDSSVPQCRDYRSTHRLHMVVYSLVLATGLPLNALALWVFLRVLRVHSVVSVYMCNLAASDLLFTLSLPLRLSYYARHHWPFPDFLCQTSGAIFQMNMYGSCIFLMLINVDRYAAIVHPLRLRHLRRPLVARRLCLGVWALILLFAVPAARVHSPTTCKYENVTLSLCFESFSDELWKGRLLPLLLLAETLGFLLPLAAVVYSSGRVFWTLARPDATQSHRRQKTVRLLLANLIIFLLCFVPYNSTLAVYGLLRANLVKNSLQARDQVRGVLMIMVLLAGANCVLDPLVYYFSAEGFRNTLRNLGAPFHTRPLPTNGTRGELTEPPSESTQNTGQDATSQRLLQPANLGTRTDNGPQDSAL

SMILES | pIC50 [1] | other results
COc1cc2c(C(=O)N3CCCCCC3)cn(-c3ccc(F)cc3)c(=O)c2cc1OC | < 5.52 | 
CCCCCCN(C)C(=O)c1cn(-c2ccc(OCC)cc2)c(=O)c2cc(OC)c(OC)cc12 | < 5.00 | 
COc1cc2c(C(=O)N3CCCCCC3)cn(-c3cccc(N(C)C)c3)c(=O)c2cc1OC | 6.89 | 
CCOc1ccc(-n2cc(C(=O)N3CCC(F)CC3)c3cc(OC)c(OC)cc3c2=O)cc1 | 6.12 | 
CCc1ccc(-n2cc(C(=O)N3CCCCCC3)c3cc(OC)c(OC)cc3c2=O)cc1 | 6.24 | 
COc1cc2c(C(=O)N3CCCCCC3)cn(-c3ccc(C)c(C)c3)c(=O)c2cc1OC | 6.14 | 
CCOc1ccc(-n2cc(C(=O)N3CCCCCC3)c3cc(OC)c(OC)cc3c2=O)cc1 | 5.74 | 
CCN1CCc2ccc(-n3cc(C(=O)N4CCC(F)CC4)c4cc(OC)c(OC)cc4c3=O)cc21 | 6.92 | concentration at 0.5 h [2]: 9.06 µM; concentration at 0.5 h [3]: 1220 nM; Kp at 0.5 h [4]: 0.13; Activity [5]: Active; Activity [6]: inactive
COc1cc2c(C(=O)N3CCCCCC3)cn(-c3ccc(C(N)=O)cc3)c(=O)c2cc1OC | < 4.52 | 
COc1cc2c(C(=O)N3CCCCCC3)cn(C(C)C)c(=O)c2cc1OC | < 4.52 | 
CCN1CCc2ccc(-n3cc(C(=O)N4CCCCCC4)c4cc(OC)c(OC)cc4c3=O)cc21 | 6.96 | 
